In patent EP0845217A1, “Inhibiting undesirable taste in oral compositions” (priority 1996, dated 1998):

Columns and labels:
[1] = test system: purified protein tyrosine phosphatase; assay: Purified protein tyrosine phosphatase, dephosphorylation of phosphotyrosine-containing peptide substrates; assay type: biochemical; conditions: experiments not described
[2] = test system: human taste response to bitter-tasting compounds; assay: Human taste test: paired comparisons of bitter-tasting compounds with and without VMP; assay type: in vivo; conditions: inhibitor 0.3%; for Cert. (%): mean certainty score
Source text: In this test all samples contain 5% sucrose. […] Subjects rate which sample is most bitter, and also indicate on a 7 point scale the certainty of their choice. […] However, it inhibits bitterness of phenylpropanolamine and guaifenesin to a lesser degree.

[3] = acetaminophen 10.00 mM, total # responses 4
[4] = acetaminophen 32.00 mM, total # responses 5
[5] = chlorpheniramine maleate 0.100 mM, total # responses 4
[6] = chlorpheniramine maleate 1.000 mM, total # responses 4
[7] = dextromethorphan 0.320 mM, total # responses 4
[8] = guaifenesin 0.320 mM, total # responses 4
[9] = guaifenesin 3.200 mM, total # responses 4
[10] = guaifenesin 10.00 mM, total # responses 4
[11] = phenylpropanolamine HCl 3.200 mM, total # responses 5
[12] = phenylpropanolamine HCl 10.00 mM, total # responses 5
[13] = pseudoephedrine HCl 0.320 mM, total # responses 5
[14] = pseudoephedrine HCl 1.000 mM, total # responses 5
[15] = sucrose octaacetate 0.001 mM, total # responses 5
[16] = sucrose octaacetate 0.003 mM, total # responses 5

Substance: vanillylmonophosphate [VMP]
- effect on tyrosine phosphatase activity against peptide substrates [1]: inhibits the activity
- Cert. (%) ([2]; acetaminophen 10.00 mM): 43%
- Corr./Tot. [2, 3]: 0.50
- Correct # responses [2, 3]: 2
- Cert. (%) ([2]; acetaminophen 32.00 mM): 29%
- Corr./Tot. [2, 4]: 0.80
- Correct # responses [2, 4]: 4
- Cert. (%) ([2]; chlorpheniramine maleate 0.100 mM): 54%
- Corr./Tot. [2, 5]: 1.00
- Correct # responses [2, 5]: 4
- Cert. (%) ([2]; chlorpheniramine maleate 1.000 mM): 71%
- Corr./Tot. [2, 6]: 1.00
- Correct # responses [2, 6]: 4
- Cert. (%) ([2]; dextromethorphan 0.320 mM): 82%
- Corr./Tot. [2, 7]: 1.00
- Correct # responses [2, 7]: 4
- Cert. (%) ([2]; guaifenesin 0.320 mM): 14%
- Corr./Tot. [2, 8]: 0.50
- Correct # responses [2, 8]: 2
- Cert. (%) ([2]; guaifenesin 3.200 mM): 36%
- Corr./Tot. [2, 9]: 0.50
- Correct # responses [2, 9]: 2
- Cert. (%) ([2]; guaifenesin 10.00 mM): 57%
- Corr./Tot. [2, 10]: 0.75
- Correct # responses [2, 10]: 3
- Cert. (%) ([2]; phenylpropanolamine HCl 3.200 mM): 11%
- Corr./Tot. [2, 11]: 0.40
- Correct # responses [2, 11]: 2
- Cert. (%) ([2]; phenylpropanolamine HCl 10.00 mM): 49%
- Corr./Tot. [2, 12]: 0.80
- Correct # responses [2, 12]: 4
- Cert. (%) ([2]; pseudoephedrine HCl 0.320 mM): 14%
- Corr./Tot. [2, 13]: 0.60
- Correct # responses [2, 13]: 3
- Cert. (%) ([2]; pseudoephedrine HCl 1.000 mM): 34%
- Corr./Tot. [2, 14]: 0.40
- Correct # responses [2, 14]: 2
- Cert. (%) ([2]; sucrose octaacetate 0.001 mM): 20%
- Corr./Tot. [2, 15]: 0.20
- Correct # responses [2, 15]: 1
- Cert. (%) ([2]; sucrose octaacetate 0.003 mM): 23%
- Corr./Tot. [2, 16]: 0.40
- Correct # responses [2, 16]: 2
